The numbers were not newly measured in US20030084473A1, “Non-transgenic herbicide resistant plants” (priority 2001, published 2003), which cites them from elsewhere.

This data set has as its target wild-type EPSPS from E. coli (Escherichia coli, UniProt P0A6D3). The settings on record: read-out: apparent Km for PEP.

Chain of wild-type EPSPS from E. coli (P0A6D3 whole entry): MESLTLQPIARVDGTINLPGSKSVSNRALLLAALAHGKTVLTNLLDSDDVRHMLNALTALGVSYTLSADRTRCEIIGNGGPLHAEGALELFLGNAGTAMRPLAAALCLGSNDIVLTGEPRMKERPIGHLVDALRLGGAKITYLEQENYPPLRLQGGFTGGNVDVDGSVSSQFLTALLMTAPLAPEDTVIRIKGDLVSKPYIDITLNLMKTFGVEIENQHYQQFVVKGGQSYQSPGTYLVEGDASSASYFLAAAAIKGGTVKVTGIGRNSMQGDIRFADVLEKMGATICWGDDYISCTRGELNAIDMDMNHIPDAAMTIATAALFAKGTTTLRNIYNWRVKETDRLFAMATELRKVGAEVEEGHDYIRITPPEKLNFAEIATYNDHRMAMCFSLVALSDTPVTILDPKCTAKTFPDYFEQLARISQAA

By Km is commonly meant the concentration of substrate that gives half-maximal velocity. As for `C=C(OP(=O)(O)O)C(=O)O` [PEP, phosphoenolpyruvic acid], the Michaelis constant (Km) was 10 µM.
